Assay results published in ChEMBL document CHEMBL1142172, “Curing Mycobacterium ulcerans infection in mice with a combination of rifampin-streptomycin or rifampin-amikacin” (2007).

How the values were obtained:
Mycobacterium ulcerans [1] = experiment: Antimycobacterial activity in Mycobacterium ulcerans Cu001 infected BALB/c mouse assessed as mean number of CFU per foot-pad at […], sc after 2 weeks; format: functional
Mycobacterium ulcerans [2] = experiment: Antimycobacterial activity in Mycobacterium ulcerans Cu001 infected BALB/c mouse assessed as mean number of CFU per foot-pad at 10 mg/kg, sc after 2 weeks; format: functional; settings: route subcutaneous

Row | SMILES | Log10 cfu (Mycobacterium ulcerans [1]) | Log10 cfu (Mycobacterium ulcerans [2])
1 | NCC[C@H](O)C(=O)N[C@@H]1C[C@H](N)[C@@H](O[C@H]2O[C@H](CN)[C@@H](O)[C@H](O)[C@H]2O)[C@H](O)[C@H]1O[C@H]1O[C@H](CO)[C@@H](O)[C@H](N)[C@H]1O [AMIKACIN] | 3.92 | –
2 | CO[C@H]1/C=C/O[C@@]2(C)Oc3c(C)c(O)c4c(O)c(c(/C=N/N5CCN(C)CC5)c(O)c4c3C2=O)NC(=O)/C(C)=C\C=C\[C@H](C)[C@H](O)[C@@H](C)[C@@H](O)[C@@H](C)[C@H](OC(C)=O)[C@@H]1C [RIFAMPIN] | – | 4.13
3 | CN[C@@H]1[C@H](O[C@H]2[C@H](O[C@H]3[C@H](O)[C@@H](O)[C@H](N=C(N)N)[C@@H](O)[C@@H]3N=C(N)N)O[C@@H](C)[C@]2(O)C=O)O[C@@H](CO)[C@H](O)[C@H]1O [STREPTOMYCIN] | 4.13 | –
